Test results as given in PMC11257039, “VCP activator reverses nuclear proteostasis defects and enhances TDP-43 aggregate clearance in multisystem proteinopathy models” (The Journal of Clinical Investigation, 2024).
“And” between values parts separate entries of the source, which are not always exact repeats. Identical values can stand only once.

Tests used:
recombinant WT VCP [1] = target: T1, recombinant WT VCP (Mus musculus, UniProt Q01853); assay: MESG-PNP (EnzCheck) phosphate release ATPase assay, WT VCP; type: biochemical; conditions: for ATPase activity v0/ET: 25 μM compound, replicate experiments
T1 construct: in the full-length recombinant VCP; His (N); made in house; host or cells: Escherichia coli BL21-CodonPlus (DE3)-RIL
Procedure: (§1) All other experiments were performed using the EnzCheck phosphatase assay kit (Molecular Probes). ATPase activity was measured in a 96-well flat bottom plate (Thermo Fisher Scientific). 50 nM VCP was incubated in 100 μL ATPase buffer with 2% DMSO with 25 μM compound and various ATP concentrations. The absorbance at 360 ± 5 nm was measured for more than 15 minutes at 25°C. Phosphate release was quantified based on a phosphate standard curve performed on the same plate. Initial enzyme velocity was determined by fitting the linear portion of the data to a linear regression model.
(§2) Experiments with varied compound concentration were fit to a 3-parameter dose curve with asymmetric profile likelihood 95% confidence intervals in GraphPad Prism 9 (GraphPad). Experiments with varied ATP concentration were fit to a Michaelis-Menten model with asymmetric profile likelihood 95% confidence intervals. Significance was determined for experiments with fixed compound or fixed ATP concentration using a linear mixed-effects model.

luciferase = assay: Luciferase counter assay: Kinase-Glo with 62.5 μM ATP without recombinant VCP; type: biochemical; conditions: for measured ATP consumed (nmol) without VCP: replicate values
Procedure: (§3) Experiments with varied activator concentration and screening were measured using the Kinase-Glo Luminescent Kinase Assay (Promega). Reactions were incubated at 25°C for 1 hour then reduced to 4°C in a thermocycler consisting of 50 nM of recombinant VCP with or without 50 nM UFD1/NPLOC4 in 50 uL ATPase buffer (25 mM HEPES, pH 7.5, 100 mM NaCl, 10 mM MgCl2) at 2% DMSO with 62.5 μM ATP and a range of activator concentrations (Gibco, Sigma-Aldrich). Equal volumes of reaction and Kinase-Glo reagent were incubated for 20 minutes at room temperature in a 96 well white flat bottom plate (Corning). Luminescence was measured in a microplate reader (Spark 20M, Tecan).
(A-D) Measured ATP as determined by a Kinase-Glo assay of 62.5μM ATP in the presence of increasing concentrations of compound without recombinant VCP present. (for all panels: n=3 with 4 technical replicates per experiment, points are expressed as beta ± SE, linear mixed effects model, P>0.05 for each […]
(1 picture or pasted object on this page, not shown here)

R155H VCP = target: T2, R155H VCP (Mus musculus, UniProt Q01853, R155H); assay: MESG-PNP ATPase assay, recombinant R155H VCP; type: biochemical; conditions: VCP Mutation R155H; replicate values
T2 construct: in the full-length recombinant VCP; His (N); made in house; host or cells: Escherichia coli BL21-CodonPlus (DE3)-RIL
Procedure: as §1
(§4) Figure S8. VCP activators variable effect on ATPase activity of MSP associated mutations in recombinant VCP. ATPase activity of 50 nM recombinant VCP protein was measured using an MESG-PNP assay upon treatment with 25 μM compound versus 2% DMSO control at 1mM ATP for WT (also shown in Fig. 5c), A232E, R155H, and R159H (n=3 with 3 technical replicated per experiment; points are expressed as beta ± SE, linear effects model: *P<0.05,**P<0.01; ***P<0.001; ****P<0.0001).

26S proteasome = 26S proteasome activity, Suc-LLVY-AMC fluorescence; type: biochemical, human; conditions: 25 μM compound, versus 1% DMSO
Procedure: 26S proteasome and substrate suc-LLVY-AMC were purchased (LifeSensors, Inc.). Fluorescence was measured in a microplate reader using a 96-well optical bottom black plate (Thermo Fisher Scientific). […] 26S proteasome was incubated in 100 μL proteasome buffer (20 mM HEPES, pH 7.5, 0.5 mM EDTA, 0.05% Triton-X) with 100 μM suc-LLVY-AMC, 1 mM ATP, and 25 μM compound or 1% DMSO. Fluorescence was measured at excitation 380 ± 10nm and emission 460 ± 10nm for more than 15 minutes at 37°C. Initial velocity was determined by fitting the linear portion of the data to a linear regression model. Significance was determined for using a linear mixed-effects model.

A232E VCP = target: T3, A232E VCP (Mus musculus, UniProt Q01853, A232E); assay: MESG-PNP ATPase assay, recombinant A232E VCP; type: biochemical; conditions: VCP Mutation A232E; replicate values
T3 construct: in the full-length recombinant VCP; His (N); made in house; host or cells: Escherichia coli BL21-CodonPlus (DE3)-RIL
Procedure: as §1, §4

recombinant WT VCP [2] = target: T1, recombinant WT VCP; assay: Kinase-Glo ATPase assay, recombinant WT VCP; type: biochemical; conditions: for ATP consumed: WT VCP no UN
Procedure: as §3, §2

[3] = system: WT HeLa cells expressing GFP-TDP-4FL; assay: Flow cytometry of GFP-TDP-4FL integrated fluorescence, WT HeLa; type: cell-based; conditions: for Integrated Fluorescence WT (Normalized to CHX): 4 μM MG132 17 h
Procedure: Drug treatments were performed on neurons 7 days after lentiviral transduction and 14 days after neuronal induction. HeLa cells were collected using trypsin and pelleted at 1000g for 3 minutes. Cell pellets were resuspended in colorless DMEM (Invitrogen) supplemented with 2% FBS and filtered through a BD tube with cell strainer (BD Biosciences) for flow cytometry analysis on LSR II (BD Biosciences). Data analysis was performed on FlowJo v10 software. Integrated fluorescence intensity was determined by multiplying percent positive GFP and GFP median fluorescence values.

R159H VCP = target: T4, R159H VCP (Mus musculus, UniProt Q01853, R159H); assay: MESG-PNP ATPase assay, recombinant R159H VCP; type: biochemical; conditions: VCP Mutation R159H; replicate values
T4 construct: in the full-length recombinant VCP; His (N); made in house; host or cells: Escherichia coli BL21-CodonPlus (DE3)-RIL
Procedure: as §1, §4

WT VCP + Ufd1/Nploc4 = target: T5, WT VCP + Ufd1/Nploc4 (Mus musculus, UniProt Q01853); assay: Kinase-Glo ATPase assay, WT VCP with UFD1/NPLOC4 (UN); type: biochemical; conditions: for ATP consumed: WT VCP with UN
T5 construct: in the full-length recombinant VCP; His (N); made in house; host or cells: E. coli (VCP: BL21-CodonPlus (DE3)-RIL; UFD1 and NPLOC4: E. coli (DE3), purified by the MD Anderson core)
Procedure: as §3, §2

T4 sequence (Q01853 whole entry R159H): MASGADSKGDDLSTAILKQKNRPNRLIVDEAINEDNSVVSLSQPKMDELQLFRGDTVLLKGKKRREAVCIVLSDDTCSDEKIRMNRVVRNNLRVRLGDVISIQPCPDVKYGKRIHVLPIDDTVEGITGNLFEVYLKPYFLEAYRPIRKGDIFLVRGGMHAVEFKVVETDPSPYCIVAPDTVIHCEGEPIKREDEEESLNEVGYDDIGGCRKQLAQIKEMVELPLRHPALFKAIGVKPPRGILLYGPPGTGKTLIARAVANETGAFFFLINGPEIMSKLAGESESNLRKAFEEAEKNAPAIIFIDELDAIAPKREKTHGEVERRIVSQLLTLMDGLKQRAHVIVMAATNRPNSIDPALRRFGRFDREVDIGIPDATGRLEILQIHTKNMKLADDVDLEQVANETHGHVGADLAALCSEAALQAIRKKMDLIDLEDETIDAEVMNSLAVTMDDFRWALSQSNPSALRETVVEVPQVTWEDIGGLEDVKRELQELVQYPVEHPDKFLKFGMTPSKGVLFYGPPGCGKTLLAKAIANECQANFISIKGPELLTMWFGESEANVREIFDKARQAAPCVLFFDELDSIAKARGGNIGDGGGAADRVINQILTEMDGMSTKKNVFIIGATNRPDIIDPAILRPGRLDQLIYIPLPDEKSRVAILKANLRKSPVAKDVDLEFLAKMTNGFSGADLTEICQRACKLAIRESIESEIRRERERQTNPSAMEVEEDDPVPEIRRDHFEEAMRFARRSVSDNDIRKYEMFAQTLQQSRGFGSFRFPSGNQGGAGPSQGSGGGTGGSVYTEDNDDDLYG
T5 sequence (Q01853 whole entry): as the sequence (Q01853 whole entry R159H) above, with H159R counted along it
T5 sequence (Q92890 whole entry partner): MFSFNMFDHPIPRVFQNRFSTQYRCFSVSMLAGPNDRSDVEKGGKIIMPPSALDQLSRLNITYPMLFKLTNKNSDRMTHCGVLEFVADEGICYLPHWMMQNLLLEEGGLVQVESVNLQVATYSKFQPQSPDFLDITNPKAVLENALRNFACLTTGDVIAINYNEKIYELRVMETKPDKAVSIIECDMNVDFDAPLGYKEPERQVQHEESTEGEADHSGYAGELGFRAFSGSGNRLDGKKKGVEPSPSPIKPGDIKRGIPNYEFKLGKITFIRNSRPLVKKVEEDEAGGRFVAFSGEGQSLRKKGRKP
T5 sequence (Q8TAT6 whole entry partner): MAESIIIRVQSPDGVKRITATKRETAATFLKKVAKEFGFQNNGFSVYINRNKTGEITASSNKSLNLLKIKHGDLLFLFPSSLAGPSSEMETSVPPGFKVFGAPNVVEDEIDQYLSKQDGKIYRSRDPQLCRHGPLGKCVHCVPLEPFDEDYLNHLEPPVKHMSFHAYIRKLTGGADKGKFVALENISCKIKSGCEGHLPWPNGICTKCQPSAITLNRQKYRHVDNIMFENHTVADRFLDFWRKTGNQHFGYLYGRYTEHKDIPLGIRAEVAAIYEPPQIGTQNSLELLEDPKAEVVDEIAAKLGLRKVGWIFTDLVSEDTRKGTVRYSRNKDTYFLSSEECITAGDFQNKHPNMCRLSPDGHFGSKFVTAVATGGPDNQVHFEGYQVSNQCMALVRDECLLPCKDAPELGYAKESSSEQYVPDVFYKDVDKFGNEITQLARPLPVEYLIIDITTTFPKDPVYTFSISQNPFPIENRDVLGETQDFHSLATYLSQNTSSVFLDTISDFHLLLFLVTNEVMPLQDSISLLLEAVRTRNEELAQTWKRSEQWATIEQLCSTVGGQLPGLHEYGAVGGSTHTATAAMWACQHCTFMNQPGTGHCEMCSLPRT
T1 sequence (Q01853 whole entry): as the sequence (Q01853 whole entry R159H) above, with H159R counted along it
T3 sequence (Q01853 whole entry A232E): as the sequence (Q01853 whole entry R159H) above, with H159R, A232E counted along it
T2 sequence (Q01853 whole entry R155H): as the sequence (Q01853 whole entry R159H) above, with R155H, H159R counted along it

O=C(CSc1nc2ccccc2c(=O)n1NC(=O)c1ccccc1)c1ccc(Cl)cc1 [UP12]
kcat (nmol Pi / nmol VCP / s) (95% CI) (recombinant WT VCP [1]; 25 μM activator): 0.309 (0.269, 0.356) nmol Pi / nmol VCP / s | increase in kcat (recombinant WT VCP [1]; 25 μM activator, versus DMSO): about 25% | ATPase activity v0/ET (recombinant WT VCP [1]; [ATP] 62.5 μM): 0.164 nmol Pi / nmol VCP / s and 0.127 nmol Pi / nmol VCP / s and 0.154 nmol Pi / nmol VCP / s | ATPase activity v0/ET (recombinant WT VCP [1]; [ATP] 125 μM): 0.234 nmol Pi / nmol VCP / s and 0.182 nmol Pi / nmol VCP / s and 0.208 nmol Pi / nmol VCP / s | ATPase activity v0/ET (recombinant WT VCP [1]; [ATP] 250 μM): 0.282 nmol Pi / nmol VCP / s and 0.230 nmol Pi / nmol VCP / s and 0.291 nmol Pi / nmol VCP / s | ATPase activity v0/ET (recombinant WT VCP [1]; [ATP] 500 μM): 0.289 nmol Pi / nmol VCP / s and 0.232 nmol Pi / nmol VCP / s and 0.265 nmol Pi / nmol VCP / s | ATPase activity v0/ET (recombinant WT VCP [1]; [ATP] 1000 μM): 0.320 nmol Pi / nmol VCP / s and 0.260 nmol Pi / nmol VCP / s and 0.293 nmol Pi / nmol VCP / s | luciferase activity (measured ATP without VCP) (luciferase; 62.5 μM ATP, increasing concentrations of compound): did not inhibit luciferase activity | measured ATP consumed (nmol) without VCP (luciferase; compound 6.25 μM): 3.153 nmol and 3.247 nmol and 3.452 nmol and 3.556 nmol and 3.276 nmol and 3.463 nmol and 3.531 nmol and 3.381 nmol and 3.251 nmol and 3.386 nmol and 3.279 nmol and 3.064 nmol | measured ATP consumed (nmol) without VCP (luciferase; compound 12.5 μM): 3.163 nmol and 3.366 nmol and 3.532 nmol and 3.606 nmol and 3.351 nmol and 3.662 nmol and 3.334 nmol and 3.435 nmol and 3.323 nmol and 3.733 nmol and 3.427 nmol and 3.076 nmol | measured ATP consumed (nmol) without VCP (luciferase; compound 25 μM): 3.243 nmol and 3.452 nmol and 3.683 nmol and 3.709 nmol and 3.371 nmol and 3.627 nmol and 3.582 nmol and 3.248 nmol and 3.318 nmol and 3.356 nmol and 3.238 nmol and 3.225 nmol | measured ATP consumed (nmol) without VCP (luciferase; compound 50 μM): 3.199 nmol and 3.663 nmol and 3.673 nmol and 3.419 nmol and 3.053 nmol and 3.725 nmol and 3.509 nmol and 3.086 nmol and 3.588 nmol and 3.442 nmol and 3.634 nmol and 3.113 nmol | measured ATP consumed (nmol) without VCP (luciferase; compound 100 μM): 3.128 nmol and 3.612 nmol and 3.580 nmol and 3.474 nmol and 3.673 nmol and 3.565 nmol and 3.583 nmol and 2.931 nmol and 3.556 nmol and 3.479 nmol and 3.581 nmol and 3.246 nmol | ATPase activity, nmol Pi / nmol VCP / s (R155H VCP): 0.592 nmol Pi / nmol VCP / s and 0.458 nmol Pi / nmol VCP / s and 0.468 nmol Pi / nmol VCP / s | % activity of 26S proteasome (26S proteasome): 94.3% and 79.8% and 83.9% and 107.1% and 92.8% and 109.7% | ATPase activity, nmol Pi / nmol VCP / s (A232E VCP): 1.130 nmol Pi / nmol VCP / s and 0.838 nmol Pi / nmol VCP / s and 0.963 nmol Pi / nmol VCP / s | EC50 (recombinant WT VCP [2]; EC50 (μM) (95% CI), WT VCP without UN, 50 nM VCP, 62.5 μM ATP, 2% DMSO): 1.57 µM | ATP consumed (recombinant WT VCP [2]; 0.20 μM compound): 0.972 nmol and 0.921 nmol and 1.113 nmol | ATP consumed (recombinant WT VCP [2]; 0.39 μM compound): 1.046 nmol and 0.999 nmol and 1.126 nmol | ATP consumed (recombinant WT VCP [2]; 0.78 μM compound): 1.028 nmol and 1.027 nmol and 1.185 nmol | ATP consumed (recombinant WT VCP [2]; 1.56 μM compound): 1.050 nmol and 1.001 nmol and 1.186 nmol | ATP consumed (recombinant WT VCP [2]; 3.13 μM compound): 0.987 nmol and 1.173 nmol and 1.366 nmol | ATP consumed (recombinant WT VCP [2]; 6.25 μM compound): 1.164 nmol and 1.158 nmol and 1.362 nmol | ATP consumed (recombinant WT VCP [2]; 12.5 μM compound): 1.242 nmol and 1.397 nmol and 1.210 nmol | ATP consumed (recombinant WT VCP [2]; 25 μM compound): 1.202 nmol and 1.262 nmol and 1.324 nmol | recombinant WT VCP ATPase activity (recombinant WT VCP [2]; in vitro validation of 106 screen hits): significantly increased | increase of VCP activity (recombinant WT VCP [2]; maximum, WT VCP without UN): 39% | Integrated Fluorescence WT (Normalized to CHX) ([3]; then CHX with 5 μM compound 4 h): 0.972 and 1.128 and 1.069 and 1.136 and 1.032 and 0.941 | Integrated Fluorescence WT (Normalized to CHX) ([3]; then CHX with 20 μM compound 4 h): 0.894 and 0.971 and 1.353 and 0.977 and 0.848 and 0.689 | clearance of GFP-TDP-4FL aggregates (integrated fluorescence) ([3]; MG132, then CHX with 5 or 20 μM activator): did not have a significant effect | ATPase activity, nmol Pi / nmol VCP / s (R159H VCP): 0.579 nmol Pi / nmol VCP / s and 0.685 nmol Pi / nmol VCP / s and 0.536 nmol Pi / nmol VCP / s | change in EC50 with UN compared to without UN (WT VCP + Ufd1/Nploc4): non-significant decreases | change in maximum percent activity with UN compared to without UN (WT VCP + Ufd1/Nploc4): significantly decreased | EC50 (WT VCP + Ufd1/Nploc4; WT VCP + Ufd1/Nploc4, 1:1 molar ratio): 648 nM | ATP consumed (WT VCP + Ufd1/Nploc4; 0.20 μM compound): 1.300 nmol and 1.366 nmol and 1.077 nmol | ATP consumed (WT VCP + Ufd1/Nploc4; 0.39 μM compound): 1.441 nmol and 1.399 nmol and 1.156 nmol | ATP consumed (WT VCP + Ufd1/Nploc4; 0.78 μM compound): 1.422 nmol and 1.447 nmol and 1.306 nmol | ATP consumed (WT VCP + Ufd1/Nploc4; 1.56 μM compound): 1.523 nmol and 1.537 nmol and 1.366 nmol | ATP consumed (WT VCP + Ufd1/Nploc4; 3.13 μM compound): 1.496 nmol and 1.548 nmol and 1.334 nmol | ATP consumed (WT VCP + Ufd1/Nploc4; 6.25 μM compound): 1.632 nmol and 1.536 nmol and 1.400 nmol | ATP consumed (WT VCP + Ufd1/Nploc4; 12.5 μM compound): 1.663 nmol and 1.623 nmol and 1.427 nmol | ATP consumed (WT VCP + Ufd1/Nploc4; 25 μM compound): 1.544 nmol and 1.491 nmol and 1.364 nmol
